Key:
[1] = target: T1, Dimer of Gag-Pol polyprotein [489-587] (Human immunodeficiency virus 1, UniProt P12497); assay: Protease Inhibition Assay
T1 construct: 489-587
Method: (§1) Enzymatic activity was measured by following cleavage of the substrate H-Lys-Ala-Arg-Val-Leu-pNph-Glu-Ala-Nle-NH2. Products of the cleavage reaction were quantified by HPLC detection

[2] = target: T2, Dimer of Gag-Pol polyprotein [514-612] (Human immunodeficiency virus 2, UniProt P04584); assay: Protease Inhibition Assay
T2 construct: 514-612
T2 sequence (P04584 whole entry): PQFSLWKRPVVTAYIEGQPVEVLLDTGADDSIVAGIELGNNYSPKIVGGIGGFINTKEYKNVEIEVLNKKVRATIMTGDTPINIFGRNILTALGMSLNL
Method: as §1

| Compound | Ki ([1]; pH 6.25, 37 °C) [nM] | Ki [2] [nM] | further results |
| --- | --- | --- | --- |
| CCC(C)[C@H](NC(=O)[C@H](NCc1ccccc1)[C@H](O)[C@H](Cc1ccccc1)NC(=O)[C@@H](NC(=O)OCc1ccccc1)C(C)C)C(=O)NCc1ccccc1 (stereo partly drawn) [benzyl N-[(1S)-1-{[(2S,3R,4R)-4-(benzylamino)-4-{[(1S,2R)-1-(benzylcarbamoyl)-2-methylbutyl]carbamoyl}-3-hydroxy-1-phenylbutan-2-yl]carbamoyl}-2-methylpropyl]carbamate] | > 3000 | – | – |
| CC(C)[C@H](NC(=O)OCc1ccccc1)C(=O)N[C@@H](Cc1ccccc1)[C@@H](O)[C@@H](NCc1ccccc1)C(=O)N[C@@H](C(=O)NCc1ccccc1)C(C)(C)C [5PhBuCOOH deriv.] | – | – | Ki [1]: > 3000 nM |
| COc1ccc(CN[C@@H](C(=O)N[C@H](C(=O)NCc2nc3ccccc3[nH]2)C(C)C)[C@H](O)[C@H](Cc2ccccc2)NC(=O)[C@@H](NC(=O)[C@@](C)(O)c2ccccc2)C(C)(C)C)cc1 [5PhBuCOOH deriv.] | – | 110 | Ki [1]: 6 nM |
| COc1ccc(CN[C@@H](C(=O)N[C@H](C(=O)NCc2nc3ccccc3[nH]2)C(C)C)[C@H](O)[C@H](Cc2ccccc2)NC(=O)[C@@H](NC(=O)CCc2ccc(O)cc2)C(C)(C)C)cc1 [5PhBuCOOH deriv.] | – | 63 | – |
| COc1ccc(CN[C@@H](C(=O)N[C@H](C(=O)NCc2ccccc2)C(C)C)[C@H](O)[C@H](Cc2ccccc2)NC(=O)[C@@H](NC(=O)OCc2ccccc2)C(C)C)cc1 [benzyl N-[(1S)-1-{[(2S,3R,4R)-4-{[(1S)-1-(benzylcarbamoyl)-2-methylpropyl]carbamoyl}-3-hydroxy-4-{[(4-methoxyphenyl)methyl]amino}-1-phenylbutan-2-yl]carbamoyl}-2-methylpropyl]carbamate] | – | – | Ki ([2]; pH 4.7, 37 °C): 39 nM |
| CC(C)[C@H](NC(=O)OCc1ccccc1)C(=O)N[C@@H](Cc1ccccc1)[C@@H](O)[C@@H](NCc1ccccc1)C(=O)N[C@H](C(=O)NCc1ccccc1)C(C)C [5PhBuCOOH deriv.] | – | – | Ki ([2]; pH 4.7, 37 °C): 180 nM |
| CC(C)[C@H](NC(=O)[C@H](NCc1ccc(Cl)cc1)[C@H](O)[C@H](Cc1ccccc1)NC(=O)[C@@H](NC(=O)OCc1ccccc1)C(C)(C)C)C(=O)NCc1nc2ccccc2[nH]1 [benzyl N-[(1S)-1-{[(2S,3R,4R)-4-{[(1S)-1-[(1H-1,3-benzodiazol-2-ylmethyl)carbamoyl]-2-methylpropyl]carbamoyl}-4-{[(4-chlorophenyl)methyl]amino}-3-hydroxy-1-phenylbutan-2-yl]carbamoyl}-2,2-dimethylpropyl]carbamate] | – | 17 | – |
| COc1ccc(CN[C@@H](C(=O)N[C@H](C(=O)NCc2nc3ccccc3[nH]2)C(C)C)[C@H](O)[C@H](Cc2ccccc2)NC(=O)[C@@H](NC(=O)OCc2ccccc2)C(C)(C)C)cc1 [5PhBuCOOH deriv.] | – | 52 | – |
| CC(C)[C@H](NC(=O)[C@H](NCc1ccccc1)[C@H](O)[C@H](Cc1ccccc1)NC(=O)[C@@H](NC(=O)OCc1ccccc1)C(C)(C)C)C(=O)NCc1ccccc1 [5PhBuCOOH deriv.] | – | – | Ki ([2]; pH 4.7, 37 °C): 54 nM |
| CC(C)[C@H](NC(=O)OCc1ccccc1)C(=O)N[C@@H](Cc1ccccc1)[C@@H](O)[C@@H](NCc1ccccc1)C(=O)N[C@H](C(=O)NCc1ccccc1)C(C)(C)C [benzyl N-[(1S)-1-{[(2S,3R,4R)-4-(benzylamino)-4-{[(1S)-1-(benzylcarbamoyl)-2,2-dimethylpropyl]carbamoyl}-3-hydroxy-1-phenylbutan-2-yl]carbamoyl}-2-methylpropyl]carbamate] | 20 | – | – |
| CCC(C)[C@H](NC(=O)OCc1ccccc1)C(=O)N[C@@H](Cc1ccccc1)[C@@H](O)[C@@H](NCc1ccccc1)C(=O)N[C@H](C(=O)NCc1ccccc1)C(C)C (stereo partly drawn) [5PhBuCOOH deriv.] | 8.3 | – | – |
| CC(C)[C@H](NC(=O)[C@H](NCc1ccccc1)[C@H](O)[C@H](Cc1ccccc1)NC(=O)[C@H](CCC(=O)O)NC(=O)OCc1ccccc1)C(=O)NCc1ccccc1 [5PhBuCOOH deriv.] | 45 | – | – |

Reference: BindingDB's records for doi:10.1021/jm00045a013 (Sandoz Forschungsinstitut Ges.M.B.H., 1994)
